Where only a bound is given, the exact number is not on record here.

Drawing on US20240398828A1, “HETERO-ATOM CONTAINING COMPOUNDS AND USES THEREOF” (Kumquat Biosciences Inc., priority 2021, published 2024), this text covers IC50 for 24 molecules.

The target in one assay is T1, PTPN2 (i.e., TC-PTP) (Homo sapiens, UniProt P17706).
T1 sequence (P17706 1-415): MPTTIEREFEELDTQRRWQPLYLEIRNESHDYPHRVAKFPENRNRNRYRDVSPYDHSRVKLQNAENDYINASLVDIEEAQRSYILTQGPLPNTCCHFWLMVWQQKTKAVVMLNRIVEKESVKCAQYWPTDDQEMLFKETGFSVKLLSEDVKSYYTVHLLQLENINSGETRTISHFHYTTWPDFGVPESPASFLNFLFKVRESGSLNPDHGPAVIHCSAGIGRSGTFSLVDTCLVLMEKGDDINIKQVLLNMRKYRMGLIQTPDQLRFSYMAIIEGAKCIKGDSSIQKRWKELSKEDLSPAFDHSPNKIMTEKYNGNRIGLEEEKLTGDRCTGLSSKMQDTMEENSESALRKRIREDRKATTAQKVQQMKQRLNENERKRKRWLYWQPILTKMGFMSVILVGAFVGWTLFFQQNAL
The assay is described as follows: Phosphatase activity assay (DiFMUP substrate), PTPN2. It is filed as biochemical. Conditions: compounds binned ≤1 uM or >1 uM. In a few lines:
(§1)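 Read-out is continuous fluorescence of DiFMU (360 nm excitation, 450 nm emission) over about 15-30 minutes, with DiFMUP substrate at the enzyme's independently determined Km (PTPN2 approx. 45 μM final). Buffer: 50 mM HEPES pH 7.5, 150 mM NaCl, 0.5 mM EDTA, 1 mM DTT, 0.001% Tween-20, room temperature; initial rates versus 10-point dilution fitted for IC50, at least duplicate.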

Another assay deals with T2, PTPN1 (i.e., PTP1B) (Homo sapiens, UniProt P18031).
T2 sequence (P18031 1-435): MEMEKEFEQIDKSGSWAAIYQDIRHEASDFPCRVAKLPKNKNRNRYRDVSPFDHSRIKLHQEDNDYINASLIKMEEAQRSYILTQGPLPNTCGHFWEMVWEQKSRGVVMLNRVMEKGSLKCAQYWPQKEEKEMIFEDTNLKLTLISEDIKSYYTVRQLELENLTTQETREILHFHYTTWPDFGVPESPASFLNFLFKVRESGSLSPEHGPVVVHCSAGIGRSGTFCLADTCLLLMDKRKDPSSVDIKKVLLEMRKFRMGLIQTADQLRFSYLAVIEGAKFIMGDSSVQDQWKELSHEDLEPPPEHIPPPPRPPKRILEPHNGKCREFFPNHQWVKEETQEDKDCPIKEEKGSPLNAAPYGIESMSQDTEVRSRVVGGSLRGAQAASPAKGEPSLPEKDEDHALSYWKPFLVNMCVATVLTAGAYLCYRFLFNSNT
The experiment in a line: Phosphatase activity assay (DiFMUP substrate), PTP1B. It is filed as biochemical. Particulars: compounds binned ≤1 uM or >1 uM. In a few lines: as §1

Usually IC50 stands for the concentration that gives 50% inhibition. As for `N#Cc1cccc(Cn2cc(-c3ccc(O)c(N4CC(=O)NS4(=O)=O)c3F)cn2)c1` [Compound 161, 3-((4-(3-(1,1-dioxido-4-oxo-1,2,5-thiadiazolidin-2-yl)-2-fluoro-4-hydroxyphenyl)-1H-pyrazol-1-yl)methyl)benzonitrile], the IC50 is not above 1000 nM at PTPN2 (i.e., TC-PTP) and not above 1000 nM on PTPN1 (i.e., PTP1B).
On to `COc1ccc(-c2cnc(O)nc2)c(F)c1N1CC(=O)NS1(=O)=O` [Compound 105, 5-(2-fluoro-3-(2-hydroxypyrimidin-5-yl)-6-methoxyphenyl)-1,2,5-thiadiazolidin-3-one 1,1-dioxide], for which the concentration for half-maximal inhibition (IC50) on PTPN2 (i.e., TC-PTP) is more than 1000 nM; on PTPN1 (i.e., PTP1B) it was more than 1000 nM.
On to `O=C1CN(c2c(O)ccc(C3=CCN(S(=O)(=O)c4ccccc4)C3)c2F)S(=O)(=O)N1` [Compound 404, 5-(2-fluoro-6-hydroxy-3-(1-(phenylsulfonyl)-2,5-dihydro-1H-pyrrol-3-yl)phenyl)-1,2,5-thiadiazolidin-3-one 1,1-dioxide], for which the IC50 on PTPN2 (i.e., TC-PTP) is not above 1000 nM; at PTPN1 (i.e., PTP1B), not above 1000 nM.
`O=C1CN(c2c(O)ccc(C3=CCN(CC(F)F)C3)c2F)S(=O)(=O)N1` [Compound 521, 5-(3-(1-(2,2-difluoroethyl)-2,5-dihydro-1H-pyrrol-3-yl)-2-fluoro-6-hydroxyphenyl)-1,2,5-thiadiazolidin-3-one 1,1-dioxide]: the IC50 at PTPN2 (i.e., TC-PTP) was not above 1000 nM; on PTPN1 (i.e., PTP1B), not above 1000 nM.
On to `O=C1CN(c2c(O)ccc(-c3c[nH]c(CCC4CC4)c3)c2F)S(=O)(=O)N1` [Compound 257, 5-(3-(5-(2-cyclopropylethyl)-1H-pyrrol-3-yl)-2-fluoro-6-hydroxyphenyl)-1,2,5-thiadiazolidin-3-one 1,1-dioxide], for which the IC50 on PTPN2 (i.e., TC-PTP) was not above 1000 nM; on PTPN1 (i.e., PTP1B) it was not above 1000 nM.
Consider `O=C1CN(c2c(O)ccc(-c3c[nH]nc3F)c2F)S(=O)(=O)N1` [Compound 507, 5-(2-fluoro-3-(3-fluoro-1H-pyrazol-4-yl)-6-hydroxyphenyl)-1,2,5-thiadiazolidin-3-one 1,1-dioxide], for which the 50% inhibitory concentration (IC50) at PTPN2 (i.e., TC-PTP) was not above 1000 nM; at PTPN1 (i.e., PTP1B), not above 1000 nM.
Regarding `NC(=O)Cn1nc(-c2ccc(O)c(N3CC(=O)NS3(=O)=O)c2F)cc1C1CC1` [Compound 229, 2-(5-cyclopropyl-3-(3-(1,1-dioxido-4-oxo-1,2,5-thiadiazolidin-2-yl)-2-fluoro-4-hydroxyphenyl)-1H-pyrazol-1-yl)acetamide], the IC50 was not above 1000 nM on PTPN2 (i.e., TC-PTP) and not above 1000 nM on PTPN1 (i.e., PTP1B).
`O=C1CN(c2c(O)ccc(-c3cc(C4CC4)n(CC4CC4)n3)c2F)S(=O)(=O)N1` [Compound 409, 5-(3-(5-cyclopropyl-1-(cyclopropylmethyl)-1H-pyrazol-3-yl)-2-fluoro-6-hydroxyphenyl)-1,2,5-thiadiazolidin-3-one 1,1-dioxide]: the half-maximal inhibitory concentration (IC50) at PTPN2 (i.e., TC-PTP) is not above 1000 nM; on PTPN1 (i.e., PTP1B), not above 1000 nM.
With `O=C1CN(c2c(O)ccc(-c3cnn(C(=O)N4CC(F)(F)C4)c3)c2F)S(=O)(=O)N1` [Compound 505, 5-(3-(1-(3,3-difluoroazetidine-1-carbonyl)-1H-pyrazol-4-yl)-2-fluoro-6-hydroxyphenyl)-1,2,5-thiadiazolidin-3-one 1,1-dioxide], the IC50 was not above 1000 nM at PTPN2 (i.e., TC-PTP) and not above 1000 nM at PTPN1 (i.e., PTP1B).
Consider `Cc1cc(-c2ccc(O)c(N3CC(=O)NS3(=O)=O)c2F)[nH]n1` [Compound 183, 5-(2-fluoro-6-hydroxy-3-(3-methyl-1H-pyrazol-5-yl)phenyl)-1,2,5-thiadiazolidin-3-one 1,1-dioxide], for which the half-inhibitory concentration (IC50) was not above 1000 nM at PTPN2 (i.e., TC-PTP) and not above 1000 nM on PTPN1 (i.e., PTP1B).
`Cn1nc(-c2ccc(O)c(N3CC(=O)NS3(=O)=O)c2F)cc1C1CCCN1` (stereo not drawn) [Compound 468, 5-(2-fluoro-6-hydroxy-3-(1-methyl-5-(pyrrolidin-2-yl)-1H-pyrazol-3-yl)phenyl)-1,2,5-thiadiazolidin-3-one 1,1-dioxide]: the IC50 at PTPN2 (i.e., TC-PTP) is more than 1000 nM; on PTPN1 (i.e., PTP1B), not above 1000 nM.
For the molecule `O=C1CN(c2c(O)ccc(-c3cn(C4CC4)[nH]c3=O)c2F)S(=O)(=O)N1` [Compound 245, 5-(3-(1-cyclopropyl-3-oxo-2,3-dihydro-1H-pyrazol-4-yl)-2-fluoro-6-hydroxyphenyl)-1,2,5-thiadiazolidin-3-one 1,1-dioxide], the IC50 was not above 1000 nM on PTPN2 (i.e., TC-PTP) and not above 1000 nM on PTPN1 (i.e., PTP1B).
For the molecule `O=C1CN(c2c(O)ccc(-c3ccc(NS(=O)(=O)C4CC4)cc3)c2F)S(=O)(=O)N1` [Compound 292, N-(3′-(1,1-dioxido-4-oxo-1,2,5-thiadiazolidin-2-yl)-2′-fluoro-4′-hydroxy-[1,1′-biphenyl]-4-yl)cyclopropanesulfonamide], the concentration for half-maximal inhibition (IC50) is not above 1000 nM on PTPN2 (i.e., TC-PTP) and not above 1000 nM on PTPN1 (i.e., PTP1B).
As to `CC(C)CCn1cnc(-c2ccc(O)c(C3=CC(=O)NS3(=O)=O)c2F)c1` [Compound 391, 5-(2-fluoro-6-hydroxy-3-(1-isopentyl-1H-imidazol-4-yl)phenyl)isothiazol-3(2H)-one 1,1-dioxide], the IC50 at PTPN2 (i.e., TC-PTP) is not above 1000 nM; at PTPN1 (i.e., PTP1B) it was not above 1000 nM.
Consider `O=C1CN(c2c(O)ccc(-c3ccnc(-c4ccccc4)c3)c2F)S(=O)(=O)N1` [Compound 136, 5-(2-fluoro-6-hydroxy-3-(2-phenylpyridin-4-yl)phenyl)-1,2,5-thiadiazolidin-3-one 1,1-dioxide], for which the IC50 was more than 1000 nM at PTPN2 (i.e., TC-PTP) and not above 1000 nM on PTPN1 (i.e., PTP1B).
Taken in the same sequence, the figures for `COc1ccccc1-n1cnc(-c2ccc(O)c(N3CC(=O)NS3(=O)=O)c2F)c1` [Compound 346, 5-(2-fluoro-6-hydroxy-3-(1-(2-methoxyphenyl)-1H-imidazol-4-yl)phenyl)-1,2,5-thiadiazolidin-3-one 1,1-dioxide] were not above 1000 nM and not above 1000 nM.
In the case of `O=C1CN(c2c(O)ccc(-c3ccc(NS(=O)(=O)C4CCC4)cc3)c2F)S(=O)(=O)N1` [Compound 335, N-(3′-(1,1-dioxido-4-oxo-1,2,5-thiadiazolidin-2-yl)-2′-fluoro-4′-hydroxy-[1,1′-biphenyl]-4-yl)cyclobutanesulfonamide], the IC50 is not above 1000 nM on PTPN2 (i.e., TC-PTP) and not above 1000 nM at PTPN1 (i.e., PTP1B).
In the case of `Cn1cc(-c2ccc(O)c(N3CC(=O)NS3(=O)=O)c2F)cc1CCC1CC1` [Compound 392, 5-(3-(5-(2-cyclopropylethyl)-1-methyl-1H-pyrrol-3-yl)-2-fluoro-6-hydroxyphenyl)-1,2,5-thiadiazolidin-3-one 1,1-dioxide], the IC50 is not above 1000 nM at PTPN2 (i.e., TC-PTP) and not above 1000 nM at PTPN1 (i.e., PTP1B).
As for `CN(C)C1(Cn2cc(-c3ccc(O)c(N4CC(=O)NS4(=O)=O)c3F)cn2)CCC1` [Compound 430, 5-(3-(1-((1-(dimethylamino)cyclobutyl)methyl)-1H-pyrazol-4-yl)-2-fluoro-6-hydroxyphenyl)-1,2,5-thiadiazolidin-3-one 1,1-dioxide], the IC50 is not above 1000 nM on PTPN2 (i.e., TC-PTP) and not above 1000 nM on PTPN1 (i.e., PTP1B).
Consider `CN1CC(n2cc(-c3ccc(O)c(N4CC(=O)NS4(=O)=O)c3F)cn2)C1` [Compound 310, 5-(2-fluoro-6-hydroxy-3-(1-(1-methylazetidin-3-yl)-1H-pyrazol-4-yl)phenyl)-1,2,5-thiadiazolidin-3-one 1,1-dioxide], for which the IC50 at PTPN2 (i.e., TC-PTP) was not above 1000 nM; on PTPN1 (i.e., PTP1B), not above 1000 nM.
On to `CC(C)CCC1C=C(c2ccc(O)c(N3CC(=O)NS3(=O)=O)c2F)CN1` (stereo not drawn) [Compound 541, 5-(2-fluoro-6-hydroxy-3-(5-isopentyl-2,5-dihydro-1H-pyrrol-3-yl)phenyl)-1,2,5-thiadiazolidin-3-one 1,1-dioxide], for which the 50% inhibitory concentration (IC50) on PTPN2 (i.e., TC-PTP) was not above 1000 nM; on PTPN1 (i.e., PTP1B), not above 1000 nM.
`O=C1CN(c2c(O)ccc(-c3cnn(CCC(F)F)c3)c2F)S(=O)(=O)N1` [Compound 510, 5-(3-(1-(3,3-difluoropropyl)-1H-pyrazol-4-yl)-2-fluoro-6-hydroxyphenyl)-1,2,5-thiadiazolidin-3-one 1,1-dioxide]: the IC50 on PTPN2 (i.e., TC-PTP) is not above 1000 nM; at PTPN1 (i.e., PTP1B), not above 1000 nM.
Consider `CC(=O)N(C)C1CC=C(c2ccc(O)c(N3CC(=O)NS3(=O)=O)c2F)CC1` (stereo not drawn) [Compound 377, N-(3′-(1,1-dioxido-4-oxo-1,2,5-thiadiazolidin-2-yl)-2′-fluoro-4′-hydroxy-2,3,4,5-tetrahydro-[1,1′-biphenyl]-4-yl)-N-methylacetamide], for which the IC50 on PTPN2 (i.e., TC-PTP) was not above 1000 nM; on PTPN1 (i.e., PTP1B), not above 1000 nM.
For the molecule `Cc1ccc(-c2ccc(O)c(N3CC(=O)NS3(=O)=O)c2F)cn1` [Compound 180, 5-(2-fluoro-6-hydroxy-3-(6-methylpyridin-3-yl)phenyl)-1,2,5-thiadiazolidin-3-one 1,1-dioxide], the IC50 is not above 1000 nM on PTPN2 (i.e., TC-PTP) and not above 1000 nM on PTPN1 (i.e., PTP1B).
